Assay results as given in article PMC7797070 (Nucleic Acids Research, 2020).
One block for each molecule: values may come before it.

Tests used:
[1] = target: T1, E. coli RelA (full-length) (Escherichia coli, UniProt P0AG20); test: 3H-; type: biochemical; conditions: labelled compound; 1 mM ATP; 100 μM ppGpp or pppGpp added; 37 °C
T1 sequence (P0AG20 1-744): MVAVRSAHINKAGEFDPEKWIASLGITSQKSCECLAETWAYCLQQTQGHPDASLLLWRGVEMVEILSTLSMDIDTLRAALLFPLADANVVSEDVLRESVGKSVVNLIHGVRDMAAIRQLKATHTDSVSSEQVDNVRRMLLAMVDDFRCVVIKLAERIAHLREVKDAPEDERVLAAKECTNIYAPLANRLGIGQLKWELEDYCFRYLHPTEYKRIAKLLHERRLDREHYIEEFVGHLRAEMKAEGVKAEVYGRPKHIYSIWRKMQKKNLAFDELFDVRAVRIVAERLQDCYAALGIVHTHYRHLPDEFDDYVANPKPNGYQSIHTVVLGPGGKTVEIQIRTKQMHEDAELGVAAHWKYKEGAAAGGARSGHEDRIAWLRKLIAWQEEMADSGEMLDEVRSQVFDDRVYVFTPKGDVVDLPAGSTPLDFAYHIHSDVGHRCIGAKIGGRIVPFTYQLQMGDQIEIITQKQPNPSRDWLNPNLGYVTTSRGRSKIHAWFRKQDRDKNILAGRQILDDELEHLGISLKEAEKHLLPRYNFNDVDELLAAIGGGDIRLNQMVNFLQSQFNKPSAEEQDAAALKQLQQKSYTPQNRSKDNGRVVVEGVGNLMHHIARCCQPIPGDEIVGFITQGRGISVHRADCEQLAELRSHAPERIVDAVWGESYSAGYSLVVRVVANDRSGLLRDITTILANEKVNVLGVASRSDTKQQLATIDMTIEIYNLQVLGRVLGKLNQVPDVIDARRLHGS

[2] = target: B. subtilis Rel (full-length) (Bacillus subtilis, UniProt O54408); test: 3H-; type: biochemical; conditions: 0.3 mM labelled compound; 1 mM ATP; 5 mM Mg2+; pH 7.5, 37 °C
Sequence of B. subtilis Rel (full-length) (O54408 whole entry): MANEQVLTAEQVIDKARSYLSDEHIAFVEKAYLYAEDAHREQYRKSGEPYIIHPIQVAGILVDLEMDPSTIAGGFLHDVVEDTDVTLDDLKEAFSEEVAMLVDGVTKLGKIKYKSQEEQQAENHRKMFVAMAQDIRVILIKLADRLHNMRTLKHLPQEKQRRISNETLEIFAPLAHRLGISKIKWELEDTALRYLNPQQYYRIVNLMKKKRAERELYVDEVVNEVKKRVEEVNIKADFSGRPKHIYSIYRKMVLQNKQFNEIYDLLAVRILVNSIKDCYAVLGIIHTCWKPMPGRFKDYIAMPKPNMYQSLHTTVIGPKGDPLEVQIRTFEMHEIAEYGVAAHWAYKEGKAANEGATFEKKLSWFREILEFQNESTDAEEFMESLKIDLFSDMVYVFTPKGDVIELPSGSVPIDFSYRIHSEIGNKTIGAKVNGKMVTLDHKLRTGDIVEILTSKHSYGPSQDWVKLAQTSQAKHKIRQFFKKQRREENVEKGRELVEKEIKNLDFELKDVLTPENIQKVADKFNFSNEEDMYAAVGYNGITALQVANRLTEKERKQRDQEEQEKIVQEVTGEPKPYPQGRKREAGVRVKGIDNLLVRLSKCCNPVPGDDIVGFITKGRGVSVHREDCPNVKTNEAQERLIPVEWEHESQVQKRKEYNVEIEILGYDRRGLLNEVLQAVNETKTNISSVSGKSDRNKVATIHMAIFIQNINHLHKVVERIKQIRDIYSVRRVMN

[3] = target: T2, RelA^NTD (E. coli RelA NTD, 1-385) (Escherichia coli, UniProt P0AG20); test: isothermal titration calorimetry; type: binding
T2 sequence (P0AG20 1-385): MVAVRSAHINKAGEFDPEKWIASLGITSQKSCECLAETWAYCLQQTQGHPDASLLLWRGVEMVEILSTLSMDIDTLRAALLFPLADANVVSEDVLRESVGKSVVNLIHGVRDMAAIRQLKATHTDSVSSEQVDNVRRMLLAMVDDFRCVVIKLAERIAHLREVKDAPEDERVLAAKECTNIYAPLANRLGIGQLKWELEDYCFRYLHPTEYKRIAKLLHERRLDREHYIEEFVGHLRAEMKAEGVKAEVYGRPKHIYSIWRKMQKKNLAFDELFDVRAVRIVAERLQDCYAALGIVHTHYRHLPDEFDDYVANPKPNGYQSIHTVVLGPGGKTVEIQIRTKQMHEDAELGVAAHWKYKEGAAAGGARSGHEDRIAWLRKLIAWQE

[4] = target: Rel^NTD (B. subtilis Rel NTD, 1-373) (Bacillus subtilis, UniProt O54408); test: isothermal titration calorimetry; type: binding
Sequence of Rel^NTD (B. subtilis Rel NTD, 1-373) (O54408 1-373): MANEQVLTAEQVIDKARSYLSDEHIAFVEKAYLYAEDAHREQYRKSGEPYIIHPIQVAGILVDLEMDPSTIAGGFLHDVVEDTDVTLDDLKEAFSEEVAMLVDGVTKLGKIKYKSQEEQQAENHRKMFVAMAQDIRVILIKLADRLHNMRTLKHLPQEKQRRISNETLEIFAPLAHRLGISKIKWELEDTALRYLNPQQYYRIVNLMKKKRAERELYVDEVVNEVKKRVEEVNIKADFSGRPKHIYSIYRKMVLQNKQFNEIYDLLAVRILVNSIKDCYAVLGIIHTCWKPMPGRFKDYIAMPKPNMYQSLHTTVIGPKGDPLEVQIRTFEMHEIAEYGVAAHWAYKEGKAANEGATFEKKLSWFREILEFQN

SMILES: Nc1nc2c(ncn2[C@@H]2O[C@H](COP(=O)(O)OP(=O)(O)O)[C@@H](O)[C@H]2O)c(=O)[nH]1 [GDP]
3H-(p)ppGpp synthesis assay, TLC and scintillation counting [1]: the ppGpp alarmone is produced in situ from 3H-GDP

SMILES: Nc1nc2c(ncn2[C@@H]2O[C@H](COP(=O)(O)OP(=O)(O)OP(=O)(O)O)[C@@H](O)[C@H]2O)c(=O)[nH]1 [GTP]
3H-(p)ppGpp synthesis assay, TLC and scintillation counting [2]: B. subtilis Rel is moderately more efficient in converting GTP to pppGpp

Kd [3]: 6.9 ± 0.9 µM
Kd [4]: 10.6 ± 0.9 µM
SMILES: Nc1nc2c(ncn2[C@@H]2O[C@H](COP(=O)(O)OP(=O)(O)OP(=O)(O)O)[C@@H](OP(=O)(O)OP(=O)(O)O)[C@H]2O)c(=O)[nH]1 [pppGpp]
